The values that follow are results of earlier work, collected in patent US10717749B2, “Macrocyclic sulfondiimine compounds” (BAYER PHARMA AKTIENGESELLSCHAFT, priority 2015, dated 2020).

For the data set the following is noted: in vivo; cited from earlier work.

Take `C[N+]1(C)[C@@H]2C[C@@H](OC(=O)C(O)(c3cccs3)c3cccs3)C[C@H]1[C@@H]1O[C@@H]12` [tiotropium]: the “duration of protection against bronchospasms” value is on record as “more than 6 hours”.
